In US11987579B2 (Duke University, priority 2018, dated 2024):

Legend:
CRC240 = experiment: Inhibition of cell proliferation by MTS assay, CRC240; format: cell-based; details: Homo sapiens; CRC240, MTS assay at 72 hr
Protocol: (§1) Colon cancer cell lines SW948, HT-29, HCT116, CRC240, SW480, and DLD-1 were used in the cell proliferation assay. All cell lines, except CRC240, were from ATCC. CRC240, a colorectal cancer patient derived xenograft (PDX) cell line, was obtained from the Hsu lab (Duke University). Generation of CRC240 cell line was previously reported. SW948 cells were cultured in Leibovitz's medium (Gibco, catalog number 21083-027). HT-29 and HCT116 cells were cultured in McCoy's 5A medium (Gibco, catalog number 16600-082). SW480 cells were cultured in MEM medium. CRC240 and DLD-1 cells were cultured in RPMI medium (Gibco, catalog number 11875-093). All media were supplemented with 10% FBS and 100 U/ml penicillin-streptomycin. […] IC50 values calculated using Graphpad Prism.

pAMPK = experiment: Evaluation of phospho-AMPK levels by Western blot; format: cell-based; details: CCD841Co cells, whole cell lysate, vs DMSO control
Protocol: 12-well plates were incubated with 250 μL poly-D-lysine solution (Sigma, catalog number P6407) at 10 μg/mL for 30 minutes at room, temperature, the poly-D-lysine solution was removed, and the wells washed twice with 500 μL distilled water. Colonic epithelial CCD841Co cells were cultured in MEM medium plus 1 mM sodium pyruvate (Invitrogen, catalog number 11360070), lx MEM Non-Essential Amino Acids (Gibco catalog number 11140), 10% FBS, and 100 U/ml penicillinstreptomycin. 0.27 million CCD841Co cells per well were plated in culture medium in the poly-Dlysine coated 12-well plates and allowed to attach overnight at 37° C. in a 5% CO2 incubator. The next morning, the media was replaced with DMSO vehicle in cell media, DK419 or niclosamidein DMSO diluted to the indicated concentration with DMEM medium (Sigma, catalog number D5030) supplemented with 2 mM sodium pyruvate and 2 mM L-glutamine (Invitrogen, catalog number 25030081). […] After 30 minutes treatment, the media was removed and the cells were lysed with 120 μL 1×Laemmii sample buffer. Immunoblots of the cell lysates using antibodies to phospho-AMPK (pAMPK) (Cell Signaling Technology, catalog number 2535) and AMPK (Cell Signaling Technology, catalog number 2532) was used to detect phosphorylated AMPK ([…]) levels and total AMPK levels, respectively. Antibodies to β-actin were used as loading controls.

HT-29 = experiment: Inhibition of cell proliferation by MTS assay, HT-29; format: cell-based; details: Homo sapiens; HT-29, MTS assay at 72 hr
Protocol: as §1

SW480 = experiment: Inhibition of cell proliferation by MTS assay, SW480; format: cell-based; details: Homo sapiens; SW480, MTS assay at 72 hr
Protocol: as §1

SW948 = experiment: Inhibition of cell proliferation by MTS assay, SW948; format: cell-based; details: Homo sapiens; SW948, MTS assay at 72 hr
Protocol: as §1

HCT116 = experiment: Inhibition of cell proliferation by MTS assay, HCT116; format: cell-based; details: Homo sapiens, HCT-116; HCT116, MTS assay at 72 hr
Protocol: as §1

CRC240 PDX tumors = experiment: CRC240 PDX xenograft tumor study; format: in vivo, NOD/SCID mice; details: 11 days
Protocol: The development of CRC240 PDX was previously reported (Lu et al. PLoS One 2017, 12, e0169439). Briefly, CRC240 PDX tissue were wash in PBS and then minced in PBS at 150 mg/mL. 200 μL of the PDX tissue suspension were implanted into the flanks of NOD/SCID mice. When PDX tumor volume reached about 100 mm^3, mice were randomized and were orally dosed for 11 days daily byniclosamide, DK419, or the vehicle control (10% 1-methyl-2-pyrrolidmone and 90% PEG300). […] DK419 was dissolved in the vehicle at 0.2 mg/ml and dosed at 1 mg/kg. Tumor size and body weight were measured at day 0, 4, 8, and 11. The day after the last dose, animals were euthanized and tumor samples were collected and processed for Western blot analysis. Briefly, tumor samples were lysed in RIPA Buffer (Thermofisher Scientific, catalog number 89900). Sample lysates were subjected to Western blot using antibodies to Survivin, c-Myc, and Axin2 as described above. β-actin was used as a loading control.

DLD-1 = experiment: Inhibition of cell proliferation by MTS assay, DLD-1; format: cell-based; details: Homo sapiens; DLD-1, MTS assay at 72 hr
Protocol: as §1

six CRC tumor cell lines = experiment: MTS assay, summary over six CRC tumor cell lines; format: cell-based; details: read-out: IC50 values, range over the six CRC cell lines
Protocol: as §1

CCD841Co colonic cells = experiment: Assessment of oxygen consumption rate (OCR), Seahorse XFp; format: cell-based; details: 1 μM, CCD841Co cells, basal conditions, vs DMSO
Protocol: Colonic epithelial CCD841Co cells were plated in Seahorse XFp 8-well miniplates at 8000 cells/well and allowed to attach overnight at 37° C. in a 5% CO2 incubator. Polarographic analysis of OCR was performed using Seahorse XF Analyzer (Agilent Technologies, Santa Clara, Calif.) and a Seahorse XFp Cell Mito Stress Test Kit (Agilent Technologies, catalog number 103010-100). […] Data were analyzed by the software Wave (Version 2.3.0.20, Agilent Technologies, Santa Clara, Calif.).

Wnt/β-catenin signaling = experiment: Wnt3A-stimulated TOPFlash reporter assay; format: cell-based; details: Homo sapiens; HEK293 stably expressing TOPFlash and Renilla luciferase, Wnt3A-conditioned medium, 0.04 to 10 μM, mean±SEM, n=3; read-out: IC50, inhibition of Wnt/β-catenin signaling in TOPFlash assay
Protocol: Wnt-3A conditioned medium was prepared using L WNT-3A cells (ATCC® CRL-2647™) purchased from ATCC, and was obtained using published protocols (http://www.atcc.org/Products/All/CRL-2647.aspx#culturemethod). HEK293 were stably transfected with p8×TOPFlash, Renilla luciferase plasmid pRL-TK, and pLKO.1. Briefly, stably transfected cells were seeded in 100 μL of cell growth medium (MEM, Sigma, catalog number M4655) supplemented with 10% FBS (Atlanta Biologieals, catalog number S11050), and 1 μg/mL puromycin (Sigma, catalog number P8833), 100 U/mL penicillin-streptomycin (Invitrogen, catalog number 15140122)/well in 96-well plates and incubated in 5% CO2 at 37° C. overnight to 100% confluency. Fifty microliters of Wnt-3A conditioned medium containing the chemical compounds to be tested or DMSO was added to each well. After 6 h treatment, the cell were washed once with PBS and lysed with 55 μL of Passive Lysis Buffer supplied in the Dual-Luciferase Reporter Assay kit (Promega, Catalog number E1960). Twenty-five microliters of cell lysate was used for measuring luciferase activity in a […] plate reader (FluoStar Optima, BMG Labtech, Chicago, Ill.).

O=C(Nc1ccc(C(F)(F)F)cc1)c1cc(Cl)cc2nc(C(F)(F)F)[nH]c12 [DK419, 6-chloro-2-(trifluoromethyl)-N-(4-(trifluoromethyl)phenyl)-1H-benzo[d]imidazole-4-carboxamide]
IC50 (CRC240): 310 nM
pAMPK levels by Western blot (pAMPK): increased the levels of pAMPK
IC50 (HT-29): 110 nM
IC50 (SW480): 320 nM
IC50 (SW948): 40 nM
IC50 (HCT116): 230 nM
growth of CRC240 PDX tumors (tumor volume) (CRC240 PDX tumors; 1 mg/kg (2.4 μmol/kg) oral once a day, vs vehicle): inhibited the growth of CRC240 PDX tumors compared to vehicle control
body weight (CRC240 PDX tumors; 1 mg/kg oral once a day): Neither DK419 nor niclosamide produced a change in body weight
levels of Wnt/β-catenin target genes (Axin2, Survivin, c-Myc) in tumors, Western blot (CRC240 PDX tumors; 1 mg/kg oral once a day, tumors collected day after last dose, vs vehicle): reduced significantly
IC50 (DLD-1): 350 nM
IC50 (six CRC tumor cell lines): 40 to 350 nM
oxygen consumption rate (CCD841Co colonic cells): increases the rate of oxygen consumption
IC50 (Wnt/β-catenin signaling): 190 ± 80 nM

O=C(Nc1ccc([N+](=O)[O-])cc1Cl)c1cc(Cl)ccc1O [Niclosamide, reference compound]
IC50 (CRC240): 680 nM
pAMPK levels by Western blot (pAMPK): increased pAMPK levels
IC50 (HT-29): 100 nM
IC50 (SW480): 740 nM
IC50 (SW948): 100 nM
IC50 (HCT116): 310 nM
growth of CRC240 PDX tumors (tumor volume) (CRC240 PDX tumors; 72 mg/kg (220 μmol/kg) oral once a day, vs vehicle): inhibited tumor growth
body weight (CRC240 PDX tumors; 72 mg/kg oral once a day): Neither DK419 nor niclosamide produced a change in body weight
IC50 (DLD-1): 1780 nM
IC50 (six CRC tumor cell lines): 100 to 1780 nM
oxygen consumption rate (CCD841Co colonic cells): increases the oxygen consumption rate
IC50 (Wnt/β-catenin signaling): 450 ± 140 nM
